Experimental data reported in patent publication US20140038985A1, “TREATMENT REGIMENS” (S1 Pharmaceuticals, Inc., priority 2011, published 2014).

Assays:
healthy volunteer [1] = assay: Daily 0-2 sexual desire score in a single-subject sequential four-treatment study (4 weeks each); format: in vivo, human; conditions: for Sexual desire response (in words): overall
Description: (§1) Method. […] (1) Treatment B: […] IR Trz 50 mg t.i.d.; […] Bup 75 mg t.i.d. A washout of 1-4 weeks occurred between each treatment. […] Sexual events were counted, and three domains (sexual arousal, orgasm, and overall satisfaction with the event) were scored. Each of the sexual event variables was converted to a simple patient's global impression of improvement (PGI; improved or not improved today compared to pre-treatment baseline). […] Bup is already recommended as a treatment for HSDD; Trz is not. Thus, Fisher's exact test was applied post-hoc to the PGIs for Treatment B vs. Treatment Llow (Llow) and vs. […] Upon the advice of the independent researcher the subject dichotomized their sexual event results in a simple daily patient's global impression of improvement: improved or not improved today (compared to pre-treatment baseline). The independent researcher, when told that the results were positive for the subject but before seeing any of the data, decided to apply categorical tests to the most obvious comparisons between treatments: for the first two weeks, the second two weeks, and for all four weeks of treatment, low-dose combination of bupropion plus trazodone vs. corresponding dose of bupropion; and high-dose the combination of bupropion plus trazodone vs. same dose of trazodone. The test used for the desire score was a two-tailed paired t test. The test used for the two-category variables was an online two-tailed Fisher's exact test. Both were from the website graphpad.com.*

healthy volunteer [2] = assay: Patient's global impression of improvement (PGI) for sexual events: arousal, orgasm, overall satisfaction; same single-subject study; format: in vivo, human
Description: as §1

| SMILES | Sexual desire response (in words) (healthy volunteer [1]) | 0-2 Daily Desire Score, % of max. (max. = 28) (healthy volunteer [1]; wks 1-2) [%] | 0-2 Daily Desire Score, % of max. (max. = 28) (healthy volunteer [1]; wks 3-4) | Improvements in arousal, % of sexual events (healthy volunteer [2]; third and fourth weeks of use) [%] | Improvements in arousal, % of sexual events (healthy volunteer [2]; total for all four weeks) [%] | Improvements in arousal, % of sexual events (healthy volunteer [2]; weeks 1-2) [%] | Improvements in arousal, fraction of sexual events (healthy volunteer [2]; weeks 1-2) |
| --- | --- | --- | --- | --- | --- | --- | --- |
| O=c1n(CCCN2CCN(c3cccc(Cl)c3)CC2)nc2ccccn12 [Trz, 2-{3-[4-(3-chlorophenyl)piperazin-1-yl]propyl}[1,2,4]triazolo[4,3-a]pyridin-3(2H)-one] | low | 7 | 0, 0% | – | – | – | – |
| CC(NC(C)(C)C)C(=O)c1cccc(Cl)c1 (racemic) [Bup, (±)-2-(tert-Butylamino)-1-(3-chlorophenyl)propan-1-one] | intermediate | 32 | 50% | 0 | 20 | 40 | ⅖ |
